The values that follow come from patent US20220380310A1, “P2X7R ANTAGONISTS” (priority 2019, published 2022).

Experiment [1] has as its target T1, Human P2X2 receptor (P2X2R) (Homo sapiens, UniProt Q9UBL9).
T1 construct: expressed in transfected cells; host or cells: HEK-293
T1 sequence (Q9UBL9 1-471): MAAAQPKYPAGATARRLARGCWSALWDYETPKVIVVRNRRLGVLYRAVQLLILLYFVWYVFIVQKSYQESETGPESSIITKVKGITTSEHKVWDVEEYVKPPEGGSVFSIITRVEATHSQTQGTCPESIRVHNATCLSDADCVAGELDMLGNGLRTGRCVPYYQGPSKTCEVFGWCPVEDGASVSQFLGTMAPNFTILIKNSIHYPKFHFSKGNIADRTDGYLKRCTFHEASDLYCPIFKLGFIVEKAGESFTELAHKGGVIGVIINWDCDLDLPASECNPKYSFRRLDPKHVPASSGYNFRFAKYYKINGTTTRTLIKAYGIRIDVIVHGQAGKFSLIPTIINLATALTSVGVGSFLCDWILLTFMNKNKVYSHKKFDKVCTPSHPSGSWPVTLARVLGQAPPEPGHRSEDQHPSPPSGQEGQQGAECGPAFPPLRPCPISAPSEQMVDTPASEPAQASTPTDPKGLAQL
As to the kind of experiment: Yo-Pro-1 uptake assay, P2X2R transfected HEK-293 cells. The experiment is classed as cell-based. The following applies: 5 μM ATP stimulus; for remaining activity at 5 µM: HEK293, compound at 5 μM, read-out: Percentage of activity remains in the presence of the compound at 5 μM, P2X2R (Yo-Pro-1 Assay). The text has this: (§1) Yo-Pro-1 Iodide (Cat. No Y3603 from Fisher Scientific) is a fluorescent DNA-binding dye with a MW of 629 Da. This method is based upon the Yo-Pro-1 entrance to cells through the dilated or “large pore form” of P2X7R and its binding to intracellular DNA whereby it increases its fluorescence intensity (J. Pharmacol. Exp. Ther. 308, 1053-1061). The dye has an absorption spectrum compatible with excitation at 488 nm by argon laser sources and its emission wavelength is in the range of 515-575 nm. This Yo-Pro-1 uptake was measured in HEK-293 cells transiently transfected with P2X7R (J. Biol. Chem. 290, 7930-7942). In Brief, HEK-293 cells were seeded in growth medium at approximately 20,000 cells/well in a 96-well plate on day 1. Transfection was performed on day 2 using Lipofectamine 2000 with the P2X7R DNA plasmid at the concentration of 1.7 μg/ml. The transfection solution was replaced with the growth medium 4 hours later. Fluorescent assays were conducted on day 4. On day 4, the medium was removed, the cells were washed with phosphate buffered saline (PBS) (Cat. No. MT21040CV from Fisher Scientific). Then, 25 μl of PBS were first loaded to each well followed by 25 μl of various test compounds. The third 25 μl of solution contained a mixture of Yo-Pro-1 and stimulus bzATP (2′(3′)-O-(4-Benzoylbenzoyl)adenosine-5′-triphosphate tri(triethylammonium) salt). The final concentration of Yo-Pro-1 was 2.5 μM and of bzATP 30 μM. Fluorescence increases were measured every 30 minutes in a microplate device with excitation at 475 nm and emission wavelength in the range of 500-550 nm. PPADS (Pyridoxalphosphate-6-azophenyl-2′,4′-disulfonic acid tetrasodium) was used as the positive control. The wells with no test compounds added nor bzATP and only containing PBS and Yo-Pro-1 were served as the negative control (N Contl). The positive control (P Contl) wells were the same as N Contl but contained the stimulus, bzATP in this case.
(§2) Data used for analysis were from microplate readings 1 hour after bzATP stimulation. The result of each well was first normalized by its corresponding base microplate reading. The base microplate reading was the first reading right after all components were added. Then, the negative control signal was subtracted from. In the negative control, the test compound and the stimulus were replaced by PBS. An average of six highest values of the plate (AVG) were considered as 100% and the value of each well was divided by AVG and presented as the relative values in percentages.
Human P2X2 receptor (P2X2R) construct (J. Biol. Chem. 290, 7930-7942) was transiently transfected to HEK-293 cells and the Yo-Pro-1 assay was performed as described above. When 5 μM ATP was used as the stimulus, the elevation of receptor mediated activity can be seen in 10 minutes.

Another experiment deals with T2, P2X7R (Homo sapiens, UniProt Q99572).
T2 construct: expressed in transfected cells; host or cells: HEK-293
T2 sequence (Q99572 1-595): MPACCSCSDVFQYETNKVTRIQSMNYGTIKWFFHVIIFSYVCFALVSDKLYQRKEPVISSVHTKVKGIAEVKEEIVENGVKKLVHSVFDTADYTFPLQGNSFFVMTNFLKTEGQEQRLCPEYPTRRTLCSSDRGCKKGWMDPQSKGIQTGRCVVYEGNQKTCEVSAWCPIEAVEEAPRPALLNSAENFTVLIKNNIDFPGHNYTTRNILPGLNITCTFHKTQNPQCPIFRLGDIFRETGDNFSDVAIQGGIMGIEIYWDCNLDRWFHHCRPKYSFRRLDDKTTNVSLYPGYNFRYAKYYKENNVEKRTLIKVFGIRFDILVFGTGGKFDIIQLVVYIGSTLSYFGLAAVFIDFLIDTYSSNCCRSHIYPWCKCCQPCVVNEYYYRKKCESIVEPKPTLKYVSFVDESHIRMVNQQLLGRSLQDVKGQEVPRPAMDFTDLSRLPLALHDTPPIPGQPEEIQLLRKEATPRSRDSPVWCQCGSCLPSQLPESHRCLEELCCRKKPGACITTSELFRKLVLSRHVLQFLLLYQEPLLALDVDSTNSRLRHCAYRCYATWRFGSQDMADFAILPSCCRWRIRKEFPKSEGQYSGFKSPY
As to the kind of experiment: Yo-Pro-1 uptake assay (Yo-Pro-1 Assay) in HEK-293 cells transiently transfected with P2X7R. It is filed as cell-based. The following applies: for remaining activity at 5 µM: HEK293, read-out: Percentage of activity remains in the presence of the compound at 5 μM, P2X7R (Yo-Pro-1 Assay); for IC50: HEK-293 cells transiently transfected with P2X7R, 30 μM bzATP as stimulus, readings 1 hour after stimulation, estimated from dose-response curves.
From the text: as §1, §2
For comparison of the antagonistic effectiveness of the compounds of this invention among P2X receptors, assays were conducted at 5 μM. Among 55 compounds tested, 29 can reduce the P2X7R activity to […] of the normal activity (Table 2).

Where [2] appears, read: compound at 5 μM, 30 μM bzATP stimulus, reading 1 hour after stimulation, transfected HEK-293 cells.

Structures are written as SMILES.

Regarding `O=C(NCCc1ccccc1)C1CCCN(S(=O)(=O)c2ccc(N3CCCC3)cc2)C1` (centres unmarked) [#25], the figures for the remaining activity at 5 µM (in experiment [1]; at P2X7R (setting [2])) were 79.3% and 36.8%, respectively. Also, the IC50 on P2X7R was 5.1 µM.
The matching figures for `CCCCNc1ccc(S(=O)(=O)N2CCCC(NC(=O)CCc3ccccc3)C2)cc1` (centres unmarked) [#15]: 85%, -12.2% and 1 µM.
On to `O=S(=O)(c1ccccc1)C1CN(S(=O)(=O)c2ccc(N3CCOCC3)cc2)C1` [#11], for which the remaining activity at 5 µM in experiment [1] was 44%; on P2X7R (setting [2]), 80.9%. At P2X7R, the IC50 was 9.9 µM.
Consider `CC(C)N(C(C)C)S(=O)(=O)c1ccc(N2CCCC(NC(=O)CCc3ccccc3)C2)cc1` (centres unmarked) [#49], for which the remaining activity at 5 µM in experiment [1] came out at 55.9%; at P2X7R (setting [2]), 1.4%. Also, on P2X7R, the IC50 is 2.6 µM.
Turning to `CN(C)c1ccc(S(=O)(=O)N2CCCC(NC(=O)CCc3ccccc3)C2)cc1` (centres unmarked) [#14], the remaining activity at 5 µM in experiment [1] was 54.3%; at P2X7R (setting [2]) it was -6.1%. For the same molecule, the IC50 on P2X7R is 1.4 µM.
The matching figures for `CCOc1ccc(S(=O)(=O)N2CCCC(NC(=O)CCc3ccccc3)C2)cc1` (centres unmarked) [#37]: 58.1%, 82.7% and 28.5 µM.
Consider `CN1CCN(c2ccc(S(=O)(=O)N3CCCC(NC(=O)CCc4ccccc4)C3)cc2)CC1` (centres unmarked) [#18], for which the remaining activity at 5 µM in experiment [1] was found to be 52.7%; at P2X7R (setting [2]), 41.5%. Moreover, at P2X7R, the IC50 was 31.2 µM.
As to `NS(=O)(=O)c1ccc(N2CCCC(NC(=O)CCc3ccccc3)C2)cc1` (centres unmarked) [#53], the remaining activity at 5 µM in experiment [1] was 70.9%; at P2X7R (setting [2]), -0.5%. Also, the IC50 at P2X7R was 4.6 µM.
On to `O=C(CCc1ccccc1)N1CCN(S(=O)(=O)c2ccc(F)cc2)CC1` [#30], for which the remaining activity at 5 µM in experiment [1] was 74.9%; on P2X7R (setting [2]), 52.2%. Further, the half-maximal inhibitory concentration (IC50) on P2X7R is 1490 µM.
Take `O=C(CCc1ccccc1)NC1CCCN(S(=O)(=O)c2ccc(N3CCCC3)cc2)C1` (centres unmarked) [#13]: the results for the remaining activity at 5 µM (in experiment [1]; on P2X7R (setting [2])) were 48.9% and 0.8%, respectively. Also, the 50% inhibitory concentration (IC50) on P2X7R was 1.6 µM.
The matching figures for `O=C(CCc1ccccc1)NC1CCCN(S(=O)(=O)c2ccc(N3CCCCC3)cc2)C1` (centres unmarked) [#5]: 55.5%, -7.3% and 0.2 µM.
For the molecule `O=C(CCc1ccccc1)NC1CCCN(S(=O)(=O)Cc2ccc(Br)cc2)C1` (centres unmarked) [#8], the values for the remaining activity at 5 µM (in experiment [1]; on P2X7R (setting [2])) were 63.8% and -14.5%, respectively. Further, the concentration for half-maximal inhibition (IC50) on P2X7R was 2.1 µM.
With `O=C(CCc1ccccc1)N1CCN(S(=O)(=O)c2ccc(N3CCCCC3)cc2)CC1` [#34], the remaining activity at 5 µM in experiment [1] amounted to 72.4%; at P2X7R (setting [2]), 4.8%. Also, the IC50 at P2X7R was 2.7 µM.
The matching figures for `CC(C)S(=O)(=O)c1ccc(N2CCCC(NC(=O)CCc3ccccc3)C2)cc1` (centres unmarked) [#7]: 77.6%, 14.1% and 6 µM.
The matching figures for `COCCOc1ccc(S(=O)(=O)N2CCCC(NC(=O)CCc3ccccc3)C2)cc1` (centres unmarked) [#17]: 91.6%, 53.4% and 16.1 µM.
The matching figures for `O=C(NCCc1ccccc1)C1CCN(S(=O)(=O)c2ccc(N3CCCCC3)cc2)CC1` [#20]: 61.5%, 7% and 1 µM.
With `O=C(CCc1ccccc1)NC1CCCN(S(=O)(=O)c2ccc(N3CCC(F)(F)CC3)cc2)C1` (centres unmarked) [#46], the remaining activity at 5 µM in experiment [1] was 39.1%; at P2X7R (setting [2]) it was -8.6%. Besides, the IC50 at P2X7R was 3.8 µM.
With `COc1ccc(S(=O)(=O)N2CCCC(NC(=O)CCc3ccccc3)C2)cc1` (centres unmarked) [#2], the remaining activity at 5 µM came to 54.6% in experiment [1] and 15.8% at P2X7R (setting [2]). Besides, the IC50 on P2X7R was 2.8 µM.
The matching figures for `O=C(CCc1ccccc1)NC1CCCN(S(=O)(=O)c2ccc(N3CCOCC3)cc2)C1` (centres unmarked) [#12]: 41.8%, 44.3% and 6.7 µM.
On to `O=S(=O)(c1ccccc1)C1CN(S(=O)(=O)c2ccc(N3CCCCC3)cc2)C1` [#10], for which the remaining activity at 5 µM was 38.2% in experiment [1] and 70.1% at P2X7R (setting [2]). In addition, the IC50 at P2X7R was 5.9 µM.
With `O=C(NCCc1ccccc1)C1CCN(S(=O)(=O)c2ccc(N3CCCC3)cc2)CC1` [#21], the remaining activity at 5 µM was determined as 50.8% in experiment [1] and 36.2% on P2X7R (setting [2]). The IC50 on P2X7R is 0.9 µM.
The matching figures for `O=C(CCc1ccccc1)NC1CCCN(c2ccc(S(=O)(=O)N3CCCCC3)cc2)C1` (centres unmarked) [#54]: 81.7%, -9.3% and 1.5 µM.
On to `CC(C)(C)OC(=O)N1CCN(c2ccc(S(=O)(=O)N3CCC(C(=O)NCCc4ccccc4)CC3)cc2)CC1` [#22], for which the remaining activity at 5 µM in experiment [1] turned out to be 72%; at P2X7R (setting [2]), 43%. Also, the IC50 at P2X7R was 12.6 µM.
The matching figures for `O=C(NCCc1ccccc1)C1CCN(S(=O)(=O)c2ccc(N3CCOCC3)cc2)CC1` [#23]: 77.1%, 35.8% and 26.6 µM.
Turning to `Cc1nc(N=Nc2ccc(S(=O)(=O)[O-])cc2S(=O)(=O)[O-])c(COP(=O)([O-])[O-])c(C=O)c1O.[Na+].[Na+].[Na+].[Na+]` [PPADS, Pyridoxalphosphate-6-azophenyl-2′,4′-disulfonic acid tetrasodium, reference compound], the “Percentage of activity remains in the presence of the compound at 5 μM, P2X2R (Yo-Pro-1 Assay)” value in experiment [1] is 29.6%. Further, the “Percentage of activity remains in the presence of the compound at 5 μM, P2X7R (Yo-Pro-1 Assay)” value on P2X7R (setting [2]) is on record as 0.7%.
`O=C(CCc1ccccc1)NC1CCCN(S(=O)(=O)c2ccc(N3CCC(Oc4ccccc4)CC3)cc2)C1` (centres unmarked) [#38]: the values for the remaining activity at 5 µM (in experiment [1]; at P2X7R (setting [2])) were 57.6% and 7.5%, respectively. In addition, the IC50 on P2X7R is 0.9 µM.
